Here are results for nine compounds from ChEMBL document CHEMBL3102731, “Structure-activity relationship studies and biological characterization of human NAD(+)-dependent 15-hydroxyprostaglandin dehydrogenase inhibitors” (Bioorg Med Chem Lett, 2014).

One data set relates to Liver microsome. Kind of data set: Half life in rat liver microsomes in presence of NADPH. It counts as ADME.
Data set [1] deals with A549. Kind of data set: Induction of PGE2 production in human A549 cells at 775 pM to 45.8 uM after 4 to 20 hrs by HTRF assay relative to control. It is filed as functional.
The target in data set [2] is L-lactate dehydrogenase A chain (Homo sapiens, UniProt P00338). Kind of data set: Inhibition of LDHA (unknown origin) using sodium pyruvate as substrate at 0.46 to 57.5 uM after 15 mins by fluorescence assay.
Data set [3] concerns LNCaP. Kind of data set: Induction of PGE2 production in human LNCAP cells assessed as half-maximal activation concentration after 16 hrs by HTRF assay. It is filed as functional, cell-based.
Data set [4] concerns the target Glyceraldehyde-3-phosphate dehydrogenase (Oryctolagus cuniculus, UniProt P46406). Briefly: Inhibition of rabbit muscle GAPDH using glyceraldehyde-3-phosphate as substrate at 324 pM to 57.2 uM by fluorescence assay.
The target of data set [5] is T1, Peroxisomal multifunctional enzyme type 2 (Homo sapiens, UniProt P51659).
T1 sequence (P51659 whole entry): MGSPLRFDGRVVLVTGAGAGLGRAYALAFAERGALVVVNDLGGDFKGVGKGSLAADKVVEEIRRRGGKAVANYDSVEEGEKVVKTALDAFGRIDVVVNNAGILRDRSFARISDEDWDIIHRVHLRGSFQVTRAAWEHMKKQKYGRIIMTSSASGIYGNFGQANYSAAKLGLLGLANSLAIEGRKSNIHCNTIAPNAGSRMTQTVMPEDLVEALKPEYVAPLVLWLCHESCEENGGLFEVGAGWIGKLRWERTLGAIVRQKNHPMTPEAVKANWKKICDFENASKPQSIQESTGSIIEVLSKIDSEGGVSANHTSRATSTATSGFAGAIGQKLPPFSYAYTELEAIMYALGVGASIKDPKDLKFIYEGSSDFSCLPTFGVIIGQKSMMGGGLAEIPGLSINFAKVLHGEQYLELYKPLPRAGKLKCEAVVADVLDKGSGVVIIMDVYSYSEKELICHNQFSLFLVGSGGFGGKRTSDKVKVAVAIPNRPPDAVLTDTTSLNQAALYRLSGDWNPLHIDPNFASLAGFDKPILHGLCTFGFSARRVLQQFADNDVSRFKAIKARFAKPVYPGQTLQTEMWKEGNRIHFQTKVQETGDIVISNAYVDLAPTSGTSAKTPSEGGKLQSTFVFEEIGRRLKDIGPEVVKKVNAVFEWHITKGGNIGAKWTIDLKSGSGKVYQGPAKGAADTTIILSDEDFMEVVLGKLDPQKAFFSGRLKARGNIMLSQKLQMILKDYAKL
Briefly: Inhibition of HSD17beta4 (unknown origin) using NAD+/estradiol as substrate at 324 pM to 57.2 uM after 15 mins by UV-fluorescence assay.

Data set [6] has as its system LNCaP. Kind of data set: Induction of PGE2 production in human LNCAP cells at 41.9 nM to 100 uM after 16 hrs by HTRF assay relative to control. It counts as functional.
The target in data set [7] is T2, Aldehyde dehydrogenase 1A1 (Homo sapiens, UniProt P00352).
T2 sequence (P00352 whole entry): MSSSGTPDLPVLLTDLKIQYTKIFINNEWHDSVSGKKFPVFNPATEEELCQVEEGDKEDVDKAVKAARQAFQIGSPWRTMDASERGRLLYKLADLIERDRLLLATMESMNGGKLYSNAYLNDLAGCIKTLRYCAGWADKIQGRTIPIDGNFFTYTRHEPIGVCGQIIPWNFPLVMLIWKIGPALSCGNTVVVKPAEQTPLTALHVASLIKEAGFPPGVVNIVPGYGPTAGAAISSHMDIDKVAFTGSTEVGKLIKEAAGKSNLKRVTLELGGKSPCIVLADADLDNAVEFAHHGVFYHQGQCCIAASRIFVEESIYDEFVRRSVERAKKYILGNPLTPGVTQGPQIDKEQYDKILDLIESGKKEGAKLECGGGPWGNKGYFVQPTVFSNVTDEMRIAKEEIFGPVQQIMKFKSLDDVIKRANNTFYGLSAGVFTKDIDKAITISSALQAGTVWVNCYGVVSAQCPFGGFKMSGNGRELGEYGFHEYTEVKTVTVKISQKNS
Kind of data set: Inhibition of ALDH1A1 (unknown origin) using NAD+/propionaldehyde as substrate after 15 mins by UV-fluorescence assay.

The nature of data set [8]: Kinetic solubility of the compound in PBS buffer at pH 7.4. It counts as physicochemical.
Data set [9] relates to A549. Kind of data set: Induction of PGE2 production in human A549 cells assessed as concentration required for half-maximal activation after 4 to 20 hrs by HTRF assay. It counts as functional, cell-based.
Data set [10] deals with T3, 15-hydroxyprostaglandin dehydrogenase [NAD(+)] (Homo sapiens, UniProt P15428).
T3 sequence (P15428 whole entry): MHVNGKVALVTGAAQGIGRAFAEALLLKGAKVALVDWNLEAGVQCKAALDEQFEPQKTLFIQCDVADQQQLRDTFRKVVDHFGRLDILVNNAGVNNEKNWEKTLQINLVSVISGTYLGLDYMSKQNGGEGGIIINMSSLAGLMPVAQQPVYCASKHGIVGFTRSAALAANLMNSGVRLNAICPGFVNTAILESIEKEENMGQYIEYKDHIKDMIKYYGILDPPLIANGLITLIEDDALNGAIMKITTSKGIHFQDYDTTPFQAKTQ
Kind of data set: Inhibition of human HPGD using PGE2 as substrate after 15 mins by fluorescence assay.

Data set [11] in a line: Passive permeability of the compound at pH 7.4 by PAMPA. It is filed as ADME.
For data set [12], the target named is L-lactate dehydrogenase B chain (Homo sapiens, UniProt P07195). Briefly: Inhibition of LDHB (unknown origin) using sodium pyruvate as substrate at 0.46 to 57.5 uM after 15 mins by fluorescence assay.
L-lactate dehydrogenase B chain, sequence (P07195 whole entry): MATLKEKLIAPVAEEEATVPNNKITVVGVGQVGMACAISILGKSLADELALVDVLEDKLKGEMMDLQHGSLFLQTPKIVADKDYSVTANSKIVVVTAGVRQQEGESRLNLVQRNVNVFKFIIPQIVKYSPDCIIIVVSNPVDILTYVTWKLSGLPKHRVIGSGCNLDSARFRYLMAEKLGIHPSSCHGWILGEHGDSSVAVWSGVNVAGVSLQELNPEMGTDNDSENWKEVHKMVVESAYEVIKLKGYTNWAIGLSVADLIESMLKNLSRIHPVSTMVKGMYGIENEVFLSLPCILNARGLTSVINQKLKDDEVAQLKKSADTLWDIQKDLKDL

pIC50: −log10 of the molar value.

Glyceraldehyde-3-phosphate dehydrogenase, sequence (P46406 whole entry): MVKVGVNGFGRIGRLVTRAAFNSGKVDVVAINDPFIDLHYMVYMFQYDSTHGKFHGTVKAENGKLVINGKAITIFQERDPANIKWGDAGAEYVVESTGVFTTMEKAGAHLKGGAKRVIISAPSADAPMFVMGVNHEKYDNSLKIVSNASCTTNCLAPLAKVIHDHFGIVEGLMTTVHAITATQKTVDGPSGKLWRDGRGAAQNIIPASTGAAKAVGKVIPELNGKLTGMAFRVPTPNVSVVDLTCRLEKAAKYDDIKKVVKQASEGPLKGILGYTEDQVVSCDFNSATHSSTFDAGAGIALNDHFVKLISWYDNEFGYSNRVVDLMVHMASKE

Take `Cc1cc(-c2nnc3n2CCCCC3)c(C)n1-c1ccc(Cl)c(Cl)c1`: the t1/2 in the data set on Liver microsome was 1.9 min. The Activity in the data set with A549 [1] was 110%; in the data set with LNCaP [6], 105%. Moreover, the IC50 entry in data set [2], in data set [4], in data set [5] and in data set [12] was “Not Active” each time. In addition, the figures for the AC50 in the data set with LNCaP [3] and in the data set with A549 [9] were 352 nM and 296 nM, respectively. In addition, the pIC50 is 6.22 in [7] and 7.66 in data set [10]. Also, the Kinetic_solubility in data set [8] is 32 µM. This compound displayed a permeability in [11] of 1650 ×10⁻⁶ cm/s.
Take `Cc1cc(-c2nnc3n2CCCCC3)c(C)n1-c1cccc(Cl)c1`: the t1/2 in the data set on Liver microsome stood at 2 min. For the same compound, the Activity in the data set with A549 [1] amounted to 114%; in the data set on LNCaP [6], 68%. For the same compound, the IC50 entry in data set [2], in data set [4], in data set [5] and in [12] was “Not Active” in each case. The AC50 in the data set on LNCaP [3] was determined as 558 nM; in the data set on A549 [9], 590 nM. Also, the results for the pIC50 in [7] and in data set [10] were 5.32 and 7.47, respectively. In [8], this compound registered a Kinetic_solubility of 37 µM. The permeability in data set [11] worked out at 1100 ×10⁻⁶ cm/s.
For `Cc1cc(-c2nnc3n2CCCCC3)c(C)n1-c1cccc(C(F)(F)F)c1`, the t1/2 in the data set on Liver microsome came to 1.9 min. The results for the Activity with A549 [1] and in the data set with LNCaP [6] were 145% and 44%, respectively. Besides, the IC50 entry in data set [2], in data set [4], in [5] and in data set [12] was “Not Active” throughout. Also, the AC50 turned out to be 2220 nM with LNCaP [3] and 2090 nM with A549 [9]. For the same compound, the negative-log IC50 (pIC50) is 5.82 in data set [7] and 7.32 in [10]. In addition, the Kinetic_solubility in data set [8] came out at 33 µM. Further, the permeability in data set [11] stood at 1510 ×10⁻⁶ cm/s.
On to `Cc1ccc(-n2c(C)cc(-c3nnc4n3CCCCC4)c2C)cc1`, for which the t1/2 in the data set on Liver microsome came to 1.8 min. For the same compound, the figures for the Activity in the data set on A549 [1] and in the data set on LNCaP [6] were 107% and 71%, respectively. The IC50 result in data set [2], in data set [4], in data set [5] and in [12] was “Not Active” throughout. In addition, the AC50 in the data set with LNCaP [3] is 703 nM; in the data set with A549 [9] it was 166 nM. Further, the pIC50 in data set [7] was 5.62; in data set [10], 7.47. The Kinetic_solubility in data set [8] is 28 µM. Also, the permeability in data set [11] was 1330 ×10⁻⁶ cm/s.
With `Cc1cc(-c2nnc3n2CCCCC3)c(C)n1-c1cccc(C#N)c1`, the t1/2 in the data set with Liver microsome is listed as 8.1 min. Besides, the Activity is 350% with A549 [1] and 63% with LNCaP [6]. Further, the IC50 result in data set [2], in [4], in [5] and in data set [12] was “Not Active” each time. In addition, the AC50 is 1770 nM with LNCaP [3] and 2640 nM in the data set with A549 [9]. The results for the pIC50 in data set [7] and in data set [10] were 5.17 and 7.12, respectively. In data set [8], this compound came in with a Kinetic_solubility of over 49 µM. This compound displayed a permeability in data set [11] of 229 ×10⁻⁶ cm/s.
In the case of `Cc1cccc(-n2cnc3cc(C(=O)N4CCCC(C)(C)C4)ccc32)c1`, in the data set on Liver microsome, the t1/2 was determined as 1.8 min. The Activity in the data set on A549 [1] was found to be 127%; in the data set on LNCaP [6] it was 53%. In addition, the IC50 entry in [2], in data set [4], in data set [5] and in data set [12] was “Not Active” each time. The AC50 worked out at 4430 nM in the data set with LNCaP [3] and 743 nM in the data set on A549 [9]. The pIC50 in data set [7] is 5.72; in [10], 7.17. This compound also came in with a Kinetic_solubility in data set [8] of 5.6 µM. This compound also came in with a permeability in data set [11] of 2260 ×10⁻⁶ cm/s.
Regarding `O=C(c1ccc2c(c1)ncn2-c1cccc(Cl)c1)N1CCCCC1`, the t1/2 in the data set with Liver microsome is 6.4 min. The Activity with A549 [1] is 170%; in the data set on LNCaP [6] it was 85%. The IC50 entry in data set [2], in [4], in [5] and in data set [12] was “Not Active” in each case. Further, the AC50 in the data set with LNCaP [3] is 222 nM. Besides, the figures for the pIC50 in [7] and in data set [10] were 5.72 and 7.92, respectively. This compound also came in with a Kinetic_solubility in data set [8] of over 50 µM. The same compound yielded a permeability in data set [11] of 895 ×10⁻⁶ cm/s.
For `O=C(c1ccc2c(c1)ncn2-c1cccc(C(F)(F)F)c1)N1CCCCC1`, the t1/2 in the data set with Liver microsome was found to be 4.4 min. In addition, the results for the Activity with A549 [1] and in the data set with LNCaP [6] were 173% and 70%, respectively. Also, the IC50 result in [2], in [4], in [5] and in data set [12] was “Not Active” throughout. The results for the concentration at half-maximal activity (AC50) with LNCaP [3] and in the data set with A549 [9] were 2800 nM and 2640 nM, respectively. Besides, the pIC50 was 5.17 in data set [7] and 7.32 in [10]. The same compound showed a Kinetic_solubility in [8] of over 55 µM. In addition, the permeability in [11] stood at 1350 ×10⁻⁶ cm/s.
For the compound `COc1ccc(-n2cnc3cc(C(=O)N4CCCCC4)ccc32)cc1`, the t1/2 in the data set on Liver microsome was 23 min. Moreover, the Activity is given as 174% with A549 [1] and 69% in the data set with LNCaP [6]. The IC50 entry in data set [2], in data set [4], in [5] and in data set [12] was “Not Active” throughout. For the same compound, the AC50 in the data set on LNCaP [3] was 884 nM; in the data set with A549 [9], 662 nM. Also, the pIC50 in data set [7] is 5.87; in data set [10], 7.72. The Kinetic_solubility in data set [8] was over 50 µM. This compound returned a permeability in data set [11] of 624 ×10⁻⁶ cm/s.
